target: T1, human DP2 receptor (Homo sapiens, UniProt Q9Y5Y4); test: Prostaglandin D2 binding inhibition assay (scintillation proximity assay, 3H PGD2, membranes of transfected CHO cells); details: SPA, 5.5 nM 3H PGD2, CHO-K1 FLP-In human DP2 membranes; upper limit determinable 30 μM; read-out: IC50 ranges for inhibition of PGD2 binding to human DP2
T1 construct: expressed in transfected cells; host or cells: CHO-K1 FLP-In (Invitrogen, catalog no. R758-07), stably transfected
T1 sequence (Q9Y5Y4 1-395): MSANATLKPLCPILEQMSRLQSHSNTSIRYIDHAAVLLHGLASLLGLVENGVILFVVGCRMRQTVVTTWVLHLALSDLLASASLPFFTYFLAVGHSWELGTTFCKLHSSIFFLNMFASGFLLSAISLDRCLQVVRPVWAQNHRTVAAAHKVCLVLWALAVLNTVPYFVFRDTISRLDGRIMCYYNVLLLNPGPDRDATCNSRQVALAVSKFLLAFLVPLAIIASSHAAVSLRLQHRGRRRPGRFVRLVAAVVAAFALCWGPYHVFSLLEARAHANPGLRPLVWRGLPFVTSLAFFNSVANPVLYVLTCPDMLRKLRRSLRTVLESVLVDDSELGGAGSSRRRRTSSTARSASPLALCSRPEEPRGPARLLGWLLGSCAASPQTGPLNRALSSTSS
Protocol: The ability of compounds to inhibit binding of prostaglandin D2 (PGD2) to the human DP2 receptor was measured using a scintillation proximity assay (SPA). Chinese Hamster Ovary FLP-In cell lines (CHO-K1 FLP-In, Invitrogen, catalog no. R758-07) were stably transfected with the human DP2 gene (Genebank: AY507142). Cell lines were grown in suspension in EX-CELL 302 CHO Serum-free medium (Sigma, catalog no. 14324C) supplemented with 1% Fetal Bovine Serum (Invitrogen no. 10099-141), 2 mM L-glutamine (Invitrogen, catalog no. 25030-081) and 0.5 mg/ml Hygromycin B (Invitrogen, catalog no. 10687-010). Cells were collected by centrifugation in a Beckman Coulter Allegra X-12R centrifuge at 150×g for 5 minutes at room temperature.
Membranes from transfected cells were isolated for binding assays. Cell pellets containing approximately 2×10^9 cells were resuspended in 35 ml of cold membrane homogenization buffer (10 mM Tris (Sigma, catalog no. T2663), 1 mM EDTA (Fluka BioChemika no. 03690), and 70 μl of protease inhibitor cocktail (Sigma, catalog no. P8340)). Cells were homogenized with 30 strokes of a dounce homogenizer (Kontes, catalog no. 885303-0040), and the solution centrifuged at 200×g for 10 minutes. The supernatant was transferred to a 50 ml Oakridge tube (Beckman, catalog no. 357000) and centrifuged in a Beckman Coulter Avanti J-26×PI centrifuge with a JA30.50 rotor at 81,000×g for 1 hour at 15° C. The pellet was resuspended in membrane storage buffer (50 mM Tris (Sigma, catalog no. T2663), 2.5 mM EDTA (Fluka BioChemika no. 03690), 5 mM magnesium chloride (Sigma, catalog no. M1028), 100 mg/ml sucrose (Sigma, catalog no. 50389) and a 1:500 dilution of protease inhibitor cocktail (Sigma, catalog no. P8340)) and the total protein was quantitated using a BCA protein measurement kit (Pierce, catalog no. 23225). Aliquots were frozen at −80° C. until used. Compounds were tested for their ability to inhibit PGD2 binding to the purified membranes. 5 μg of the purified membranes, 0.25 mg of wheat germ agglutinin PVT SPA beads (GE Healthcare, catalog no. RPNQ0060) and 5.5 nM of ^3H PGD2 (PerkinElmer, catalog no. NET-616) were mixed in assay buffer ((50 mM Tris (Sigma, catalog no. T2663), 10 mM magnesium chloride (Sigma, catalog no. M1028), 100 mM sodium chloride (Sigma, catalog no. S6546) and 0.1% bovine serum albumin (Sigma, catalog no. A2153)). Using a Multidrop bulk dispenser, 75 μl of the assay mixture was dispensed in Optiplates (PerkinElmer, catalog no. 6007299) containing the compounds to be tested. After a 60 minute incubation period at room temperature, the plates were read on a PerkinElmer Topcount NXT HTS, and individual wells were quantitated as counts per minute (CPM). Data were expressed as a percent of the difference between the maximum and minimum responses. IC50 values (the concentration of compound producing 50% of the maximal response) were determined using a two-parameter non-linear regression algorithm analyzed using CambridgeSoft Bioassay software. Table 2 gives the range of IC50 values for claimed compounds in the binding assay.

Row | Compound | IC50 [nM]
1 | COc1cccc(S(=O)(=O)N2CCC(n3c(=O)n(CC(=O)O)c4cccnc43)CC2)c1 [Compound 78, 2-(3-(1-(3-methoxyphenyl-sulfonyl)piperidin-4-yl)-2-oxo-2,3-dihydro-1H-imidazo[4,5-b]pyridin-1-yl)acetic acid] | 1000 to 10000
2 | Cc1cc(S(=O)(=O)N2CCC(n3c(=O)n(CC(=O)O)c4cccnc43)CC2)c(C)s1 [Compound 76, 2-(3-(1-(2,5-dimethylthiophen-3-ylsulfonyl)piperidin-4-yl)-2-oxo-2,3-dihydro-1H-imidazo[4,5-b]pyridin-1-yl)acetic acid] | 1000 to 10000
3 | CS(=O)(=O)c1ccc(S(=O)(=O)N2CCC(n3c(=O)n(CC(=O)O)c4cccnc43)CC2)cc1 [Compound 90, 2-(3-(1-(4-(methylsulfonyl)phenyl-sulfonyl)piperidin-4-yl)-2-oxo-2,3-dihydro-1H-imidazo[4,5-b]pyridin-1-yl)acetic acid] | > 30000
4 | O=C(O)Cn1c(=O)n(C2CCN(S(=O)(=O)c3ccccc3Cl)CC2)c2ccncc21 [Compound 141, 2-(1-(1-(2-chlorophenylsulfonyl)piperidin-4-yl)-2-oxo-1H-imidazo[4,5-c]pyridin-3(2H)-yl)acetic acid] | > 30000
5 | O=C(O)Cn1c(=O)n(C2CCN(S(=O)(=O)c3cccc4cccnc34)CC2)c2ncc(F)cc21 [Compound 72, 2-(6-fluoro-2-oxo-3-(1-(quinolin-8-ylsulfonyl)piperidin-4-yl)-2,3-dihydro-1H-imidazo[4,5-b]pyridin-1-yl)acetic acid] | 1000 to 10000
6 | CS(=O)(=O)c1ccccc1S(=O)(=O)N1CCC(n2c(=O)n(CC(=O)O)c3ncccc32)CC1 [Compound 135, 2-(1-(1-(2-(methylsulfonyl)phenyl-sulfonyl)piperidin-4-yl)-2-oxo-1H-imidazo[4,5-b]pyridin-3(2H)-yl)acetic acid] | > 30000
7 | O=C(O)Cn1c(=O)n([C@@H]2CCN(S(=O)(=O)c3ccc(F)cc3Cl)C2)c2ncccc21 [Compound 101, (R)-2-(3-(1-(2-chloro-4-fluorophenylsulfonyl)pyrrolidin-3-yl)-2-oxo-2,3-dihydro-1H-imidazo[4,5-b]pyridin-1-yl)acetic acid] | < 1000
8 | Cc1ccc(S(=O)(=O)N2CC[C@@H](n3c(=O)n(CC(=O)O)c4cccnc43)C2)c(F)c1 [Compound 103, (R)-2-(3-(1-(2-fluoro-4-methylphenylsulfonyl)pyrrolidin-3-yl)-2-oxo-2,3-dihydro-1H-imidazo[4,5-b]pyridin-1-yl)acetic acid] | < 1000
9 | O=C(O)Cn1c(=O)n(C2CCN(S(=O)(=O)c3cccc4cccnc34)CC2)c2ncccc21 [Compound 49, 2-(2-oxo-3-(1-(quinolin-8-ylsulfonyl)piperidin-4-yl)-2,3-dihydro-1H-imidazo[4,5-b]pyridin-1-yl)acetic acid] | < 1000
10 | O=C(O)Cn1c(=O)n(C2CCN(S(=O)(=O)c3ccc(F)cc3)CC2)c2ncccc21 [Compound 55, 2-(3-(1-(4-fluorophenylsulfonyl)piperidin-4-yl)-2-oxo-2,3-dihydro-1H-imidazo[4,5-b]pyridin-1-yl)acetic acid] | 1000 to 10000
11 | CS(=O)(=O)c1ccccc1S(=O)(=O)N1CC[C@@H](n2c(=O)n(CC(=O)O)c3cccnc32)C1 [Compound 100, (R)-2-(3-(1-(2-(methylsulfonyl)phenylsulfonyl)pyrrolidin-3-yl)-2-oxo-2,3-dihydro-1H-imidazo[4,5-b]pyridin-1-yl)acetic acid] | < 1000
12 | O=C(O)Cn1c(=O)n(C2CCN(S(=O)(=O)c3ccc(F)cc3Cl)CC2)c2ncccc21 [Compound 51, 2-(3-(1-(2-chloro-4-fluorophenyl-sulfonyl)piperidin-4-yl)-2-oxo-2,3-dihydro-1H-imidazo[4,5-b]pyridin-1-yl)acetic acid] | < 1000
13 | CS(=O)(=O)c1ccccc1S(=O)(=O)NC1CCC(n2c(=O)n(CC(=O)O)c3cccnc32)CC1 (centres unmarked) [Compound 104, 2-(3-(4-(2-(methylsulfonyl)phenylsulfonamido)cyclohexyl)-2-oxo-2,3-dihydro-1H-imidazo[4,5-b]pyridin-1-yl)acetic acid] | 1000 to 10000
14 | O=C(O)Cn1c(=O)n(C2CCN(S(=O)(=O)c3ccc(F)cc3F)CC2)c2ncccc21 [Compound 93, 2-(3-(1-(2,4-difluorophenyl-sulfonyl)piperidin-4-yl)-2-oxo-2,3-dihydro-1H-imidazo[4,5-b]pyridin-1-yl)acetic acid] | < 1000
15 | Cc1ccnc2c1n(CC(=O)O)c(=O)n2C1CCN(S(=O)(=O)c2ccccc2S(C)(=O)=O)CC1 [Compound 117, 2-(7-methyl-3-(1-(2-(methylsulfonyl)phenylsulfonyl)piperidin-4-yl)-2-oxo-2,3-dihydro-1H-imidazo[4,5-b]pyridin-1-yl)acetic acid] | > 30000
16 | O=C(O)Cn1c(=O)n(C2CCN(S(=O)(=O)c3ccc(OC(F)(F)F)cc3)CC2)c2ncccc21 [Compound 42, 2-(2-oxo-3-(1-(4-(trifluoromethoxy)phenylsulfonyl)piperidin-4-yl)-2,3-dihydro-1H-imidazo[4,5-b]pyridin-1-yl)acetic acid] | 1000 to 10000
17 | CS(=O)(=O)c1ccccc1S(=O)(=O)N1CCC[C@H](n2c(=O)n(CC(=O)O)c3cccnc32)C1 [Compound 108, (S)-2-(3-(1-(2-(methylsulfonyl)phenylsulfonyl)piperidin-3-yl)-2-oxo-2,3-dihydro-1H-imidazo[4,5-b]pyridin-1-yl)acetic acid] | 1000 to 10000
18 | O=C(O)Cn1c(=O)n(C2CCN(S(=O)(=O)c3ccccc3[N+](=O)[O-])CC2)c2ncccc21 [Compound 67, 2-(3-(1-(2-nitrophenylsulfonyl)piperidin-4-yl)-2-oxo-2,3-dihydro-1H-imidazo[4,5-b]pyridin-1-yl)acetic acid] | < 1000
19 | Cc1ccc(S(=O)(=O)N2CCC(n3c(=O)n(CC(=O)O)c4cccnc43)CC2)cc1 [Compound 46, 2-(2-oxo-3-(1-(p-tolylsulfonyl)piperidin-4-yl)-2,3-dihydro-1H-imidazo[4,5-b]pyridin-1-yl)acetic acid] | 1000 to 10000
20 | CS(=O)(=O)c1ccccc1S(=O)(=O)N1CCC(n2c(=O)n(CC(=O)O)c3ccncc32)CC1 [Compound 149, 2-(3-(1-(2-(methylsulfonyl)phenylsulfonyl)piperidin-4-yl)-2-oxo-2,3-dihydro-1H-imidazo[4,5-c]pyridin-1-yl)acetic acid] | 1000 to 10000
21 | O=C(O)Cn1c(=O)n(C2CCN(S(=O)(=O)c3ccc(Cl)cc3Cl)CC2)c2ncccc21 [Compound 31, 2-(3-(1-(2,4-dichlorophenyl-sulfonyl)piperidin-4-yl)-2-oxo-2,3-dihydro-1H-imidazo[4,5-b]pyridin-1-yl)acetic acid] | < 1000
22 | O=C(O)Cn1c(=O)n(C2CCN(S(=O)(=O)c3ccccc3Cl)CC2)c2cccnc21 [Compound 133, 2-(1-(1-(2-chlorophenylsulfonyl)piperidin-4-yl)-2-oxo-1H-imidazo[4,5-b]pyridin-3(2H)-yl)acetic acid] | > 30000
23 | Cc1ccnc2c1n(CC(=O)O)c(=O)n2C1CCN(S(=O)(=O)c2ccc(F)cc2Cl)CC1 [Compound 120, 2-(3-(1-(2-chloro-4-fluorophenylsulfonyl)piperidin-4-yl)-7-methyl-2-oxo-2,3-dihydro-1H-imidazo[4,5-b]pyridin-1-yl)acetic acid] | > 30000

— patent US20110190336A1, “AZABENZIMIDAZOLONES” (CARA THERAPEUTICS, INC., priority 2008, published 2011)
